The target in assay [1] is T1, Inhibitor of nuclear factor kappa-B kinase subunit beta (Homo sapiens, UniProt O14920).
T1 sequence (O14920 whole entry): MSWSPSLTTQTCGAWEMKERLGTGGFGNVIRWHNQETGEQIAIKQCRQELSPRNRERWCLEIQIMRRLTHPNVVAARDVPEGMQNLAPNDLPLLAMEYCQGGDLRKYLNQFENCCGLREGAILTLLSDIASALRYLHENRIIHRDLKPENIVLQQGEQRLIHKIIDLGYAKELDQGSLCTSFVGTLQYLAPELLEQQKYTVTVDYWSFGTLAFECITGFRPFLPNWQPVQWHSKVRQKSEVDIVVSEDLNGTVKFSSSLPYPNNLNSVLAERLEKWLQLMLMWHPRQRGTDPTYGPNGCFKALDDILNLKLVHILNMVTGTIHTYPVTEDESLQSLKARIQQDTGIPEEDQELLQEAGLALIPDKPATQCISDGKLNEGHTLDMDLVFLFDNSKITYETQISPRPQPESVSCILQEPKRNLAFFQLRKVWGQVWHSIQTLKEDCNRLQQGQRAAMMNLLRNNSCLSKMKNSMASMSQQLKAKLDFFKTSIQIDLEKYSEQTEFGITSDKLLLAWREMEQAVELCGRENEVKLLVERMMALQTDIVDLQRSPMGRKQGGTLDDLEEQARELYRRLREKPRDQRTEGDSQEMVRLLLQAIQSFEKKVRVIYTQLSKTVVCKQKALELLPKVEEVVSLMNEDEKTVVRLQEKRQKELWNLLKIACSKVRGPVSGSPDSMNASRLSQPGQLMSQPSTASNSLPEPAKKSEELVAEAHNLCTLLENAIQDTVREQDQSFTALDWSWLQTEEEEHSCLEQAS
The assay is described as follows: Inhibitory activity against IKK2.

For assay [2], the target named is T2, Inhibitor of nuclear factor kappa-B kinase subunit alpha (Homo sapiens, UniProt O15111).
T2 sequence (O15111 whole entry): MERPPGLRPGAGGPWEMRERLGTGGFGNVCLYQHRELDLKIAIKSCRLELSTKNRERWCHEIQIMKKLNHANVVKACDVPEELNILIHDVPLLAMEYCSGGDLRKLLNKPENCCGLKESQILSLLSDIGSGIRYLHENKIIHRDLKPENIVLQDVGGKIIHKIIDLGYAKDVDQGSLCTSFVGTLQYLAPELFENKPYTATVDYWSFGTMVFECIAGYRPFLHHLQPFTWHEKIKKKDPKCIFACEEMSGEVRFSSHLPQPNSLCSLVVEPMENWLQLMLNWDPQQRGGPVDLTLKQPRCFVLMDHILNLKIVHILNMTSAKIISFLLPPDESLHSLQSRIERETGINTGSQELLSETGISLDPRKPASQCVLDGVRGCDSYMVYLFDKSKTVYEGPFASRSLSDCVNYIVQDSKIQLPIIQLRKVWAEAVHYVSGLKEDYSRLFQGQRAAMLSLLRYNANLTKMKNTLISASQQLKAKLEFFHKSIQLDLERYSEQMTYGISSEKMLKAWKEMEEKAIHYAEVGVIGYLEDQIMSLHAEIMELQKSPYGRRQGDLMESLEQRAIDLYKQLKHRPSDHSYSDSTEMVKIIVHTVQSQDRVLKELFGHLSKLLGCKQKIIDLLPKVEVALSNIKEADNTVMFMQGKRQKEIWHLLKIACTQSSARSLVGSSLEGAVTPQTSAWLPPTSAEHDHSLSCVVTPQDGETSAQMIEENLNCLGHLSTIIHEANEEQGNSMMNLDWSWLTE
The assay is described as follows: Inhibitory activity against IKK1.

The species named for a further assay is Homo sapiens. The assay is described as follows: Selectivity for IKK2/IKK1.

The structures appear in SMILES notation. Where “and” joins values, the source holds several entries; their conditions need not be identical. Identical values can stand only once.

As a reminder, the IC50 is the concentration that inhibits the measured activity by half. Read a high IC50 as weaker potency.

`O=S(=O)(c1ccc(-c2ccnc(Nc3cc(F)cc(F)c3)n2)cc1)N1CCNCC1`: the IC50 in assay [1] turned out to be 117 nM; in assay [2], 4070 nM.
With `CC(=O)c1cc2cc(-c3ccc(Nc4nccc(-c5ccc(S(=O)(=O)N6CCNCC6)cc5)n4)cc3)ccc2o1`, the IC50 stood at 26 nM in assay [1] and 1700 nM in assay [2]. Further, the Selectivity in the assay listed under Homo sapiens came out at 65.
The corresponding values for `NC(=O)c1ccc(Nc2nccc(-c3ccc(S(=O)(=O)N4CCNCC4)cc3)n2)cc1` are 48 nM, 3980 nM and 83.
In the case of `O=S(=O)(c1ccc(-c2ccnc(Nc3ccccc3)n2)cc1)N1CCNCC1`, the concentration for half-maximal inhibition (IC50) in assay [1] is 91 nM; in assay [2], 1170 nM. The compound further came in with a Selectivity in the assay listed under Homo sapiens of 13.
With `COc1cc(Nc2nccc(-c3ccc(S(=O)(=O)N4CCNCC4)cc3)n2)cc(OC)c1OC`, the IC50 is 145 nM in assay [1] and 155 nM in assay [2]. Besides, in the assay filed under Homo sapiens, the Selectivity was determined as 1.
On to `CCCCc1ccc(Nc2nccc(-c3ccc(S(=O)(=O)N4CCNCC4)cc3)n2)cc1`, for which the IC50 came to 309 nM in assay [1] and 2690 nM in assay [2]. In the assay listed under Homo sapiens, this compound yielded a Selectivity of 9.
The matching figures for `C[S+]([O-])c1ccc(Nc2nccc(-c3ccc(S(=O)(=O)N4CCNCC4)cc3)n2)cc1` (stereo unspecified): 91 nM, 2340 nM and 26.
With `N#Cc1cccc(Nc2nccc(-c3ccc(S(=O)(=O)N4CCNCC4)cc3)n2)c1`, the concentration for half-maximal inhibition (IC50) worked out at 83 nM in assay [1] and 5130 nM in assay [2]. Further, the Selectivity in the assay filed under Homo sapiens turned out to be 62.
On to `NC(=O)c1c[nH]c2ccc(-c3ccc(Nc4nccc(-c5ccc(S(=O)(=O)N6CCNCC6)cc5)n4)cc3)cc12`, for which the IC50 in assay [1] was 550 nM and 146 nM. In the assay filed under Homo sapiens, this compound had a Selectivity of 6.
`NS(=O)(=O)c1ccc(Nc2nccc(-c3ccc(S(=O)(=O)N4CCNCC4)cc3)n2)cc1`: the IC50 in assay [1] came out at 11 nM; in assay [2], 245 nM. This compound registered a Selectivity in the assay filed under Homo sapiens of 21.
For `NC(=O)Nc1ccc(Nc2nccc(-c3ccc(S(=O)(=O)N4CCNCC4)cc3)n2)cc1`, the half-inhibitory concentration (IC50) amounted to 155 nM in assay [1] and 1480 nM in assay [2]. The compound also registered a Selectivity in the assay listed under Homo sapiens of 10.
`COc1ccc(Nc2nccc(-c3ccc(S(=O)(=O)N4CCNCC4)cc3)n2)cc1`: the IC50 came to 214 nM in assay [1] and 1230 nM in assay [2].
Take `Cc1ccc(Nc2nccc(-c3ccc(S(=O)(=O)N4CCNCC4)cc3)n2)cc1`: the IC50 in assay [1] stood at 269 nM; in assay [2], 2090 nM.
Take `O=S(=O)(c1ccc(-c2ccnc(Nc3ccc(C(F)(F)F)cc3)n2)cc1)N1CCNCC1`: the results for the IC50 in assay [1] and in assay [2] were 513 nM and 3980 nM, respectively. For the same compound, in the assay listed under Homo sapiens, the Selectivity was 8.
The matching figures for `O=[N+]([O-])c1ccc(Nc2nccc(-c3ccc(S(=O)(=O)N4CCNCC4)cc3)n2)cc1`: 66 nM, 6920 nM and 105.

The values are drawn from ChEMBL document CHEMBL1146833, “A novel series of potent and selective IKK2 inhibitors” (Bioorg Med Chem Lett, 2004).
